This is an account of results in patent publication US9636418B2 (priority 2013, dated 2017).

pIC50: −log10 of the molar value. “And” between values parts separate entries of the source, which are not always exact repeats. Equal entries are not always repeated. Where two headings read alike, the source gives them in different places. A value given as a limit tells only on which side of the number the result lay.

For one test, the target named is hNav1.5 (Homo sapiens, UniProt Q14524). Kind of test: cell-based. Conditions: for pIC50: PatchXpress, read-out: PX hNav1.5 Tonic IC50.
The target in a further test is hNav1.4 (Homo sapiens, UniProt P35499). The experiment in a line: cell-based. Conditions: for pIC50: PatchXpress, read-out: PX hNav1.4 Tonic IC50.
Where [1] appears, read: * = at high concentrations compound would wash off slowly or not at all.

Sequence of hNav1.4 (P35499 whole entry): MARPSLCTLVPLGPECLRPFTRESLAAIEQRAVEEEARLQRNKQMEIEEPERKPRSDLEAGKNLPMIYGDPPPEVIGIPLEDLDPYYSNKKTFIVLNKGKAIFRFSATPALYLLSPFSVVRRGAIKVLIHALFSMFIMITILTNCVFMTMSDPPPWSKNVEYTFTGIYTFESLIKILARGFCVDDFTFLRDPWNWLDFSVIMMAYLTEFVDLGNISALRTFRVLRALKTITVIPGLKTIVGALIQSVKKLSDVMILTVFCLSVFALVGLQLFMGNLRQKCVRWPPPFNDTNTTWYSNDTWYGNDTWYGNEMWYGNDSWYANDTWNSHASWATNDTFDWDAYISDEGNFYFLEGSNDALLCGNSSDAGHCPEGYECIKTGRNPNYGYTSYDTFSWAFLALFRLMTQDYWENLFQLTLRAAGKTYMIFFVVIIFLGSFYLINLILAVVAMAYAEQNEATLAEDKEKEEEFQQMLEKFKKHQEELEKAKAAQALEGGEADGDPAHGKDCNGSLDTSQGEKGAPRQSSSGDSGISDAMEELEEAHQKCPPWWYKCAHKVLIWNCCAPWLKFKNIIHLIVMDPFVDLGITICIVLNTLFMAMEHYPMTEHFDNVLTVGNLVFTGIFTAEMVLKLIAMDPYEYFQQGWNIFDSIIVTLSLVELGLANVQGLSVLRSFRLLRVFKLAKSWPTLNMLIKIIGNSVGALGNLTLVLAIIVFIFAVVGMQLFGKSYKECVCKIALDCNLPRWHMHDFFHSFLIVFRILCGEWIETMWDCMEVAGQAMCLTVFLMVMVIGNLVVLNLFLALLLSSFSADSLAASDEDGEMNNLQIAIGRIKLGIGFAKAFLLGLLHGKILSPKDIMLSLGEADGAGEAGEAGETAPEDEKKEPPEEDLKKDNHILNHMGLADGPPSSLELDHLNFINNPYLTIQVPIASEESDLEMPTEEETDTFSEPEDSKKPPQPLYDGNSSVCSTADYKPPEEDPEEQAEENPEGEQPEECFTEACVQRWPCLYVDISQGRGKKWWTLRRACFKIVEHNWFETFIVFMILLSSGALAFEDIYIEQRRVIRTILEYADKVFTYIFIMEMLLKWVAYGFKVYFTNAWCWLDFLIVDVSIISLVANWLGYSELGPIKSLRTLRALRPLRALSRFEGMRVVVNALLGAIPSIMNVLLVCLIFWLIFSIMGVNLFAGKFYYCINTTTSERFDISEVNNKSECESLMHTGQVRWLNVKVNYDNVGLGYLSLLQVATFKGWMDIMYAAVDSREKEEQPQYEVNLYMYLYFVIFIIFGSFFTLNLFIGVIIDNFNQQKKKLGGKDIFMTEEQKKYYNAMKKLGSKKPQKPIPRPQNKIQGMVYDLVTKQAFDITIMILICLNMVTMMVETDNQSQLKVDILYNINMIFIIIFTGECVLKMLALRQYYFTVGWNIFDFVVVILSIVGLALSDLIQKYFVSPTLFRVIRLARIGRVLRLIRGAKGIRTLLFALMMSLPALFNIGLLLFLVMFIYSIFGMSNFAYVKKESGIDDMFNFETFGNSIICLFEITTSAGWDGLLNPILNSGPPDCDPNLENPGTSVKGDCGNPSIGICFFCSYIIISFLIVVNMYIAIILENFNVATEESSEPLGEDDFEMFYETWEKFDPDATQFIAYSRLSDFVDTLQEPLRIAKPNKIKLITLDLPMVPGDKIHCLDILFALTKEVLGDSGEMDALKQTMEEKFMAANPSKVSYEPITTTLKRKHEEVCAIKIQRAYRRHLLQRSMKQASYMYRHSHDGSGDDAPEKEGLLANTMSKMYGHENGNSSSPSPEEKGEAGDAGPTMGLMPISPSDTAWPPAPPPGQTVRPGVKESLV
Sequence of hNav1.5 (Q14524 whole entry): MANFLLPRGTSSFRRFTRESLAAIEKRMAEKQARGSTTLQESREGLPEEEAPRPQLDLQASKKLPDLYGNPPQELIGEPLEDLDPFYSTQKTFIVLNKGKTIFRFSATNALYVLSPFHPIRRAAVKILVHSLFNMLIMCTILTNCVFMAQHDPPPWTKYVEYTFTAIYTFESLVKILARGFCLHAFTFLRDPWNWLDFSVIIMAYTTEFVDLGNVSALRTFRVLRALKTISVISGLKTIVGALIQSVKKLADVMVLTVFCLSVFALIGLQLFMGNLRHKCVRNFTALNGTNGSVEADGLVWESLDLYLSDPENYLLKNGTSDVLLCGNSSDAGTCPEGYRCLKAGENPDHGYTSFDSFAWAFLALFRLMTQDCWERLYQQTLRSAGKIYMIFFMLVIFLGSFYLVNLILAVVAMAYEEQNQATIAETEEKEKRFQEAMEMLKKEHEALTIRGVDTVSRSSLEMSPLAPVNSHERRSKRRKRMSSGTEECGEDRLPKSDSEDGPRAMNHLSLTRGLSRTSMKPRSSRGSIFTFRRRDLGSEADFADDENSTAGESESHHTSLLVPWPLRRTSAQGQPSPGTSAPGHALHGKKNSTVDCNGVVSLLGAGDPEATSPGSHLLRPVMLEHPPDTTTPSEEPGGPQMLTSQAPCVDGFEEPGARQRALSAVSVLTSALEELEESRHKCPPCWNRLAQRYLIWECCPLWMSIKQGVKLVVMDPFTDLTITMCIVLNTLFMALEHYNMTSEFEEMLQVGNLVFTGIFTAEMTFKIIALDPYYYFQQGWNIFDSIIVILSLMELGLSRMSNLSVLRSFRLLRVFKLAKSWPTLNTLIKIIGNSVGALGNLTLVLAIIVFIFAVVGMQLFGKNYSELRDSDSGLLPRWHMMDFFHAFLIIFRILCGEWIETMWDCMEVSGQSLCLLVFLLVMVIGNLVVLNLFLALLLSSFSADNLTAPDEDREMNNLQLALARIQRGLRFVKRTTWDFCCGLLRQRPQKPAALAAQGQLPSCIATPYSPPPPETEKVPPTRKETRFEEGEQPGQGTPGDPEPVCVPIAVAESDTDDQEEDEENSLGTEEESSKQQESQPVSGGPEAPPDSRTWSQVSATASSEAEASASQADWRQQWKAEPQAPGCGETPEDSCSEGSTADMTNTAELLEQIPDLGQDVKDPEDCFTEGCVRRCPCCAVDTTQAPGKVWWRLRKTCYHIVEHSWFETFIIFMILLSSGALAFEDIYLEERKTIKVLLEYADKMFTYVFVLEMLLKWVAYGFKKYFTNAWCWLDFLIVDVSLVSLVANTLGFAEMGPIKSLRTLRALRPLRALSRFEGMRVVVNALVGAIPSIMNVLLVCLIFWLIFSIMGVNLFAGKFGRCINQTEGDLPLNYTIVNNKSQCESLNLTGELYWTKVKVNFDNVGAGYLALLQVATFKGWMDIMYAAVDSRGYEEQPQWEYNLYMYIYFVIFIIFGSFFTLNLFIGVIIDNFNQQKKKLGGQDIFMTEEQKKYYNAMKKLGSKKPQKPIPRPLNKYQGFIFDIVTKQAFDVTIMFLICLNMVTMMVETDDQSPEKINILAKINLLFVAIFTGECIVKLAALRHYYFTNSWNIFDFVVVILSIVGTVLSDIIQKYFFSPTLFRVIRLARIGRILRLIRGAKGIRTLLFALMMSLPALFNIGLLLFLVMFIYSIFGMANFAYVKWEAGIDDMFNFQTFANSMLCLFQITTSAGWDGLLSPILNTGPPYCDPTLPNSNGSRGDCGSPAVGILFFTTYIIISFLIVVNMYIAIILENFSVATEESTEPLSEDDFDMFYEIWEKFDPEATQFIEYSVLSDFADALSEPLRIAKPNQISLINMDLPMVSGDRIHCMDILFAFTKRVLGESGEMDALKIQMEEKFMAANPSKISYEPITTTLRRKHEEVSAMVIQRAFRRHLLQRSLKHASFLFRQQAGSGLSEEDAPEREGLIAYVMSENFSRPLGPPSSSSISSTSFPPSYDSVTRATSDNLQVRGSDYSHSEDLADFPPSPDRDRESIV

As to `CC[C@H](C)[C@H](NC(=O)[C@H](CCCCN)NC(=O)[C@H](CCCNC(=N)N)NC(=O)[C@@H]1CSSC[C@@H]2NC(=O)[C@H](C)NC(=O)[C@H](CCCNC(=N)N)NC(=O)[C@H](CCCCN)NC(=O)[C@H](CO)NC(=O)[C@H](CC(=O)O)NC(=O)[C@@H]3CSSC[C@H](NC(=O)[C@H](CCCNC(=N)N)NC(=O)[C@H](CC(C)C)NC(=O)CNC(=O)[C@H](CCC(=O)O)NC(=O)[C@H](CSSC[C@H](NC(=O)[C@@H](N)Cc4ccc(O)cc4)C(=O)N[C@@H](CCC(N)=O)C(=O)N[C@@H](CCCCN)C(=O)N[C@@H](Cc4c[nH]c5ccccc45)C(=O)N[C@@H](CCSC)C(=O)N[C@@H](Cc4c[nH]c5ccccc45)C(=O)N[C@@H]([C@@H](C)O)C(=O)N3)NC2=O)C(=O)N[C@@H](CCCCN)C(=O)N[C@@H](CC(C)C)C(=O)N[C@@H](Cc2c[nH]c3ccccc23)C(=O)N1)C(=O)N[C@@H](CCC(=O)O)C(N)=O` [compound 70], the pIC50 (as a rule, the IC50 on a negative log10 scale, so that one unit is a factor of ten) was below 5.00 on hNav1.5 (setting [1]) and 4.95 on hNav1.4 (setting [1]). The Nav1.5/Nav1.7 at hNav1.5 (ratio of PX IC50 values) is reported as above 38. For the same compound, the Nav1.4/Nav1.7 at hNav1.4 (ratio of PX IC50 values) amounted to 43.

Turning to `CCCC[C@@H]1NC(=O)[C@H](Cc2c[nH]c3ccccc23)NC(=O)[C@H](CCCCN)NC(=O)[C@H](CCC(N)=O)NC(=O)[C@@H](NC(=O)[C@H](Cc2ccc(O)cc2)NC(=O)[C@@H](N)CC(C)C)CSSC[C@@H]2NC(=O)[C@@H]3CSSC[C@@H](C(=O)N[C@@H](CCCNC(=N)N)C(=O)N[C@@H](CCCCN)C(=O)N[C@H](C(=O)N[C@H](C(N)=O)[C@@H](C)CC)[C@@H](C)CC)NC(=O)[C@H](Cc4c[nH]c5ccccc45)NC(=O)[C@H](CC(C)C)NC(=O)[C@H](CCCCN)NC(=O)[C@H](CSSC[C@H](NC(=O)[C@H]([C@@H](C)O)NC(=O)[C@H](Cc4c[nH]c5ccccc45)NC1=O)C(=O)N[C@@H](CC(=O)O)C(=O)N[C@@H](CO)C(=O)N[C@@H](CCCCN)C(=O)N[C@@H](CCCNC(=N)N)C(=O)N[C@@H](C)C(=O)N3)NC(=O)[C@H](CCCNC(=N)N)NC(=O)[C@H](CC(C)C)NC(=O)CNC(=O)[C@H](CCC(=O)O)NC2=O` [compound 361], the Nav1.5/Nav1.7 on hNav1.5 (ratio of PX IC50 values) is 0. For the same compound, on hNav1.4 (ratio of PX IC50 values), the Nav1.4/Nav1.7 came to 0.

Turning to `CCCC[C@@H]1NC(=O)[C@H](Cc2c[nH]c3ccccc23)NC(=O)[C@H](CCCCN)NC(=O)[C@H](CCC(N)=O)NC(=O)[C@@H](NC(=O)[C@H](Cc2ccc(O)cc2)NC(=O)[C@@H](N)CCC)CSSC[C@@H]2NC(=O)[C@@H]3CSSC[C@@H](C(=O)N[C@@H](CCCNC(=N)N)C(=O)N[C@@H](CCCCN)C(=O)N[C@H](C(=O)N[C@H](C(N)=O)[C@@H](C)CC)[C@@H](C)CC)NC(=O)[C@H](Cc4c[nH]c5ccccc45)NC(=O)[C@H](CC(C)C)NC(=O)[C@H](CCCCN)NC(=O)[C@H](CSSC[C@H](NC(=O)[C@H]([C@@H](C)O)NC(=O)[C@H](Cc4c[nH]c5ccccc45)NC1=O)C(=O)N[C@@H](CC(=O)O)C(=O)N[C@@H](CO)C(=O)N[C@@H](CCCCN)C(=O)N[C@@H](CCCNC(=N)N)C(=O)N[C@@H](C)C(=O)N3)NC(=O)[C@H](CCCNC(=N)N)NC(=O)[C@H](CC(C)C)NC(=O)CNC(=O)[C@H](CCC(=O)O)NC2=O` [compound 369], the pIC50 on hNav1.5 (setting [1]) is 6.31; on hNav1.4 (setting [1]), 7.94.

With `CCCC[C@@H]1NC(=O)[C@H](Cc2c[nH]c3ccccc23)NC(=O)[C@H](CCCCN)NC(=O)[C@H](CCC(N)=O)NC(=O)[C@@H](NC(=O)[C@H](Cc2ccc(O)cc2)NC(=O)[C@H](N)CC(C)C)CSSC[C@@H]2NC(=O)[C@@H]3CSSC[C@@H](C(=O)N[C@@H](CCCNC(=N)N)C(=O)N[C@@H](CCCCN)C(=O)N[C@H](C(=O)N[C@H](C(N)=O)[C@@H](C)CC)[C@@H](C)CC)NC(=O)[C@H](Cc4c[nH]c5ccccc45)NC(=O)[C@H](CC(C)C)NC(=O)[C@H](CCCCN)NC(=O)[C@H](CSSC[C@H](NC(=O)[C@H]([C@@H](C)O)NC(=O)[C@H](Cc4c[nH]c5ccccc45)NC1=O)C(=O)N[C@@H](CC(=O)O)C(=O)N[C@@H](CO)C(=O)N[C@@H](CCCCN)C(=O)N[C@@H](CCCNC(=N)N)C(=O)N[C@@H](C)C(=O)N3)NC(=O)[C@H](CCCNC(=N)N)NC(=O)[C@H](CC(C)C)NC(=O)CNC(=O)[C@H](CCC(=O)O)NC2=O` [compound 373], the negative logarithm of the IC50 (pIC50) is 6.39 on hNav1.5 (setting [1]) and 7.54 on hNav1.4 (setting [1]). In addition, the Nav1.4/Nav1.7 at hNav1.4 (ratio of PX IC50 values) amounted to 190.

As to `C#CC[C@H](N)C(=O)NCCOCCOCCOCCOCCC(=O)NCCCC[C@@H]1NC(=O)[C@H](CCCNC(=N)N)NC(=O)[C@H](CCCCN)NC(=O)[C@H](CO)NC(=O)[C@H](CC(=O)O)NC(=O)[C@@H]2CSSC[C@@H]3NC(=O)[C@H](CCCNC(=N)N)NC(=O)[C@H](CC(C)C)NC(=O)CNC(=O)[C@H](CCC(=O)O)NC(=O)[C@H](CSSC[C@H](NC(=O)[C@H](Cc4ccc(O)cc4)NC(=O)[C@@H](N)CC#N)C(=O)N[C@@H](CCC(N)=O)C(=O)N[C@@H](CCCCN)C(=O)N[C@@H](Cc4c[nH]c5ccccc45)C(=O)N[C@@H](CCCC)C(=O)N[C@@H](Cc4c[nH]c5ccccc45)C(=O)N[C@@H]([C@@H](C)O)C(=O)N2)NC(=O)[C@H](CSSC[C@@H](C(=O)N[C@@H](CCCNC(=N)N)C(=O)N[C@@H](CCCCN)C(=O)N[C@H](C(=O)N[C@H](C(N)=O)[C@@H](C)CC)[C@@H](C)CC)NC(=O)[C@H](Cc2c[nH]c4ccccc24)NC(=O)[C@H](CC(C)C)NC(=O)[C@H](CCCCN)NC3=O)NC1=O` [compound 380], at hNav1.5 (ratio of PX tonic IC50 values), the Nav1.5/Nav1.7 was 0. In addition, on hNav1.4 (ratio of PX tonic IC50 values), the Nav1.4/Nav1.7 stood at 0.

Turning to `C#CC[C@H](N)C(=O)NCCCC[C@@H]1NC(=O)[C@H](CCCNC(=N)N)NC(=O)[C@H](CCCCN)NC(=O)[C@H](CO)NC(=O)[C@H](CC(=O)O)NC(=O)[C@@H]2CSSC[C@@H]3NC(=O)[C@H](CCCNC(=N)N)NC(=O)[C@H](CC(C)C)NC(=O)CNC(=O)[C@H](CCC(=O)O)NC(=O)[C@H](CSSC[C@H](NC(=O)[C@H](Cc4ccc(O)cc4)NC(=O)[C@@H](N)CC#N)C(=O)N[C@@H](CCC(N)=O)C(=O)N[C@@H](CCCCN)C(=O)N[C@@H](Cc4c[nH]c5ccccc45)C(=O)N[C@@H](CCCC)C(=O)N[C@@H](Cc4c[nH]c5ccccc45)C(=O)N[C@@H]([C@@H](C)O)C(=O)N2)NC(=O)[C@H](CSSC[C@@H](C(=O)N[C@@H](CCCNC(=N)N)C(=O)N[C@@H](CCCCN)C(=O)N[C@@H](CCC(=O)O)C(=O)N[C@H](C(N)=O)[C@@H](C)CC)NC(=O)[C@H](Cc2c[nH]c4ccccc24)NC(=O)[C@H](CC(C)C)NC(=O)[C@H](CCCCN)NC3=O)NC1=O` [compound 392], the negative-log IC50 (pIC50) on hNav1.5 (tonic block) is 6.04 and 5.84 and 5.67; at hNav1.4 (tonic block) it was 7.06 and 6.91.

`C#CC[C@@H]1NC(=O)[C@@H]2CSSC[C@H](NC(=O)[C@H](Cc3ccc(O)cc3)NC(=O)[C@@H](N)CC#N)C(=O)N[C@@H](CCC(N)=O)C(=O)N[C@@H](CCCCN)C(=O)N[C@@H](Cc3c[nH]c4ccccc34)C(=O)N[C@@H](CCCC)C(=O)N[C@@H](Cc3c[nH]c4ccccc34)C(=O)N[C@@H]([C@@H](C)O)C(=O)N[C@H]3CSSC[C@H](NC(=O)[C@H](CCCNC(=N)N)NC(=O)[C@H](CC(C)C)NC(=O)CNC1=O)C(=O)N[C@@H](CCCCN)C(=O)N[C@@H](CC(C)C)C(=O)N[C@@H](Cc1c[nH]c4ccccc14)C(=O)N[C@H](C(=O)N[C@@H](CCCNC(=N)N)C(=O)N[C@@H](CCCCN)C(=O)N[C@@H](CCC(=O)O)C(=O)N[C@H](C(N)=O)[C@@H](C)CC)CSSC[C@H](NC(=O)[C@H](C)NC(=O)[C@H](CCCNC(=N)N)NC(=O)[C@H](CCCCN)NC(=O)[C@H](CO)NC(=O)[C@H](CC(=O)O)NC3=O)C(=O)N2` [compound 395]: the pIC50 on hNav1.5 (tonic block) is 6.15; on hNav1.4 (tonic block), 7.20 and 6.67.
